Reference: PubChem BioAssay (NCI)
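Briefly, cells in 96-well plates were exposed to five compound concentrations for 48 h, and endpoints were estimated by linear interpolation. TGI denotes the concentration required for complete inhibition of growth.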

What was measured:
Assay in all cases: growth of human tumour cells (NCI), 48 h
[1] = tested on: OVCAR-3 ovarian
[2] = tested on: NCI/ADR-RES ovarian
[3] = tested on: T-47D breast
[4] = tested on: SK-OV-3 ovarian
[5] = tested on: K-562 leukemia
[6] = tested on: RPMI-8226 leukemia
[7] = tested on: MOLT-4 leukemia
[8] = tested on: IGROV1 ovarian
[9] = tested on: MCF7 breast
[10] = tested on: OVCAR-5 ovarian
[11] = tested on: 786-0 renal
[12] = tested on: SR leukemia
[13] = tested on: HL-60(TB) leukemia
[14] = tested on: CCRF-CEM leukemia
[15] = tested on: NCI-H226 lung
[16] = tested on: COLO 205 colon
[17] = tested on: SW-620 colon
[18] = tested on: SF-268 CNS
[19] = tested on: UACC-62 melanoma
[20] = tested on: NCI-H460 lung

Measured: TGI

O=[N+]([O-])c1ccc(N=NN2CCCC2)cc1
> 100 µM: [1] | [2] | [3] | [4] | [5] | [6] | [7] | [8] | [9] | [10] | [11] | [12] | [13] | [14] | [15] | [16] | [17] | [18] | [19] | [20]
